Reference: patent publication US20230389543A1, “SOLID PHASE MATRIX FOR CROP PROTECTION” (North Carolina State University, priority 2020, published 2023)
Several values for one entry are separate records, joined by “and”; a condition that tells them apart may be missing. Equal values may be shown once.

How the values were obtained:
Root Knot Nematode = assay: Sweet potato field trial, root knot nematode count at harvest; type: in vivo, Meloidogyne enterolobii
Procedure: (§1) Location: The field trial was conducted on a farm in Woodington, NC. The field was confirmed positive for Meloidogyne enterolobii through NCDA Nematode Assay Lab analysis.
(§2) Trial set-up: Sweet potatoes (cv. Covington) were planted at 11 inch within row spacing and 42 inch rows. Plots were 4 rows wide by 10 ft long, with 10 feet between plots. Plots were maintained by the grower collaborator using standard agronomic practices. Vigor data, soil samples for mid-season nematode counts, and harvest data was collected. At harvest, the middle two rows of each plot were dug by hand and tubers assessed. Data were analyzed, plotted, and effect of treatment on yield and nematode variables was assessed through mean separation in R (v. 3.6.2).
(§3) At harvest a soil sample from each plot was collected and 100 cc of soil extracted to determine nematode populations. Three genera of nematode were observed (RKN, stunt and lesion). Counts for the two highest population species, RKN and Lesion at the harvest sampling are reported per 100 g of soil. Population counts of RKN, lesion, and stunt nematode were transformed (log 10(n+1)) prior to analysis to fit assumptions of normality.

[1] = tested on: Sweet potatoes (cv. Covington); assay: Sweet potato field trial, yield; type: in vivo
Procedure: as §1, §2
Formulations and Application rates: Six different wrap and plant formulations and 2 control treatment were tested.
For each plot the tuber were collect and sorted into 2 groups: #1 grade and cutters/jumbos. In addition, the number of #1 tubers were counted.

Lesion Nematode = assay: Sweet potato field trial, lesion nematode count at harvest; type: in vivo
Procedure: as §1, §2, §3

O=C(NCCc1ncc(C(F)(F)F)cc1Cl)c1ccccc1C(F)(F)F [Treatment 3, Fluopyram]
Average RKN Population at Harvest (Root Knot Nematode; Table 12): 12.5 /100 cc soil
RKN Population, Average (Root Knot Nematode; average of 4 plots): 12.5
Average Total Yield ([1]; Table 12): 22.1
Yield #1 Tubers, Average ([1]; average of 4 plots): 9.8 kg
No. of #1 tubers ([1]; single plot): 32 and 36 and 30 and 38
Total Yield ([1]; single plot): 22.8 kg and 28.05 kg and 20.9 kg and 16.8 kg
Yield of #1 ([1]; single plot): 9.35 kg and 12.15 kg and 9.75 kg and 8.1 kg
Yield of Jumbo & Canners ([1]; single plot): 13.45 kg and 15.9 kg and 11.15 kg and 8.7 kg
Yield #1 Tubers ([1]; single plot, Table 10, listed as Grower Standard): 8.1 kg and 9.4 kg and 12.2 kg and 9.8 kg
Average Lesion Population at Harvest (Lesion Nematode; Table 12): 118.75 /100 cc soil
Lesion Population, Average (Lesion Nematode; average of 4 plots): 118.75
